Key:
[1] = biological target: T1, Adenosine receptor A1 (Homo sapiens) (UniProt P30542); assay: Activity at human recombinant adenosine A1 receptor expressed in CHO cells assessed as cAMP level at 0.01 uM; format: functional, cell-based
T1 sequence (whole entry): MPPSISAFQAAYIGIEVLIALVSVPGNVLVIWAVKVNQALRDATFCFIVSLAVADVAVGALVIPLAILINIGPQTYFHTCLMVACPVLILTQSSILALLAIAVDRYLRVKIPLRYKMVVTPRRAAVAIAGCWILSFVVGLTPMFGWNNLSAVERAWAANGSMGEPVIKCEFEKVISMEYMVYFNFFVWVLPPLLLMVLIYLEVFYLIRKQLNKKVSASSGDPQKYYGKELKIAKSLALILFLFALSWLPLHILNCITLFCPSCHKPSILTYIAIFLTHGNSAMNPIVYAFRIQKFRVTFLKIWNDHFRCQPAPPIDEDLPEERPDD

[2] = biological target: T1, Adenosine receptor A1 (Homo sapiens); assay: Activity at human recombinant adenosine A1 receptor expressed in CHO cells assessed as of cAMP level at 0.1 uM; format: functional, cell-based
[3] = biological target: T1, Adenosine receptor A1 (Homo sapiens); assay: Activity at human recombinant adenosine A1 receptor expressed in CHO cells assessed as cAMP level at 1 uM; format: functional, cell-based
[4] = biological target: T1, Adenosine receptor A1 (Homo sapiens); assay: Activity at human recombinant adenosine A1 receptor expressed in CHO cells assessed as cAMP level at 10 uM; format: functional, cell-based
[5] = biological target: T1, Adenosine receptor A1 (Homo sapiens); assay: Displacement of [3H]DPCPX from human adenosine A1 receptor expressed in CHO cells at 10 uM; format: cell-based
[6] = biological target: Adenosine receptor A2a (Homo sapiens) (UniProt P29274); assay: Displacement of [3H]ZM241385 from human adenosine A2A receptor expressed in CHO cells at 10 uM; format: cell-based
Chain of Adenosine receptor A2a (Homo sapiens) (P29274 whole entry): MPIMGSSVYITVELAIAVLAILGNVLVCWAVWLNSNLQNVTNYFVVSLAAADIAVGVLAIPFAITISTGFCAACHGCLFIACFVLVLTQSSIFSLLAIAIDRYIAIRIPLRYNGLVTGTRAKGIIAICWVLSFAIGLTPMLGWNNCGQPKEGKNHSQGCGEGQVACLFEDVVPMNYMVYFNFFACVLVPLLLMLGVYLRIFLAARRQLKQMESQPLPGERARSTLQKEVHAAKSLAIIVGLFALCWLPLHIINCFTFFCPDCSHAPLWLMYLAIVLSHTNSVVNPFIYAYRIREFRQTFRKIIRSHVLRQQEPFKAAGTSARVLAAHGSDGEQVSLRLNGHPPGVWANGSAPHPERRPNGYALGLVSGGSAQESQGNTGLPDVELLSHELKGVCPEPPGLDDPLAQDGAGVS

[7] = biological target: T2, Adenosine receptor A3 (Homo sapiens) (UniProt P0DMS8); assay: Displacement of [3H]MRE3008F20 from human adenosine A3 receptor expressed in CHO cells at 10 uM; format: cell-based
T2 sequence (whole entry): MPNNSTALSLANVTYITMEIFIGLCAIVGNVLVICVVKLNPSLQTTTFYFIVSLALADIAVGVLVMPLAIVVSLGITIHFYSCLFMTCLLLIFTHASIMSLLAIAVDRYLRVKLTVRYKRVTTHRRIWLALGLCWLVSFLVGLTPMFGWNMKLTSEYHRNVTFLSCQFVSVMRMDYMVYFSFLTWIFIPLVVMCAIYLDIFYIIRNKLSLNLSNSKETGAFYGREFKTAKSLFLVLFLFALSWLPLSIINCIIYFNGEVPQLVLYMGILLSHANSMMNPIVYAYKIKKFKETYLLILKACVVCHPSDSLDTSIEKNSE

Adenosine receptor A1 [8] = biological target: T3, Adenosine receptor A1 (Homo sapiens, UniProt P30542); assay: Displacement of [3H]CCPA from human adenosine A1 receptor expressed in CHO cells; format: cell-based
T3 sequence (P30542 whole entry): T1 sequence (whole entry)

[9] = biological target: T1, Adenosine receptor A1 (Homo sapiens); assay: Displacement of [3H]CCPA from human adenosine A1 receptor expressed in CHO cells assessed for per milligram of protein; format: cell-based
[10] = biological target: T1, Adenosine receptor A1 (Homo sapiens); assay: Displacement of [3H]CCPA from human adenosine A1 receptor expressed in CHO cells relative to untreated control; format: cell-based
Adenosine receptor A1 [11] = biological target: T3, Adenosine receptor A1; assay: Displacement of [3H]DPCPX from human adenosine A1 receptor expressed in CHO cells; format: cell-based
[12] = biological target: T1, Adenosine receptor A1 (Homo sapiens); assay: Displacement of [3H]DPCPX from human adenosine A1 receptor expressed in CHO cells assessed for per milligram of protein; format: cell-based
[13] = biological target: T1, Adenosine receptor A1 (Homo sapiens); assay: Displacement of [3H]DPCPX from human adenosine A1 receptor expressed in CHO cells relative to untreated control; format: cell-based
Adenosine receptor A1 [14] = biological target: T4, Adenosine receptor A1 (Rattus norvegicus, UniProt P25099); assay: Displacement of [3H]DPCPX from adenosine A1 receptor in rat membranes; format: cell membranes
T4 sequence (P25099 whole entry): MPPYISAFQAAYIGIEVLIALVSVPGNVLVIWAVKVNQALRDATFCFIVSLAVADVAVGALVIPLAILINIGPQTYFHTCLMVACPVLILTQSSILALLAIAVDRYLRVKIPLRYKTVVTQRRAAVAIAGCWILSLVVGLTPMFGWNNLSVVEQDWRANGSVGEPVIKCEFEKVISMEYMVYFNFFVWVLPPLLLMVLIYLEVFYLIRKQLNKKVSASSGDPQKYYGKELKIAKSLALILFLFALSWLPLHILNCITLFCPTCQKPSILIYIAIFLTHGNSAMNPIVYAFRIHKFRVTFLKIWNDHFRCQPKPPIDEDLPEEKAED

[15] = biological target: T1, Adenosine receptor A1 (Homo sapiens); assay: Displacement of [3H]DPCPX from human adenosine A1 receptor expressed in CHO cells at 100 uM; format: cell-based

Row | Activity [1] | Activity [2] | Activity [3] | Activity [4] | Activity [5] | Activity [6] | Activity [7] | Kd (Adenosine receptor A1 [8]) | Bmax [9] | Activity [10] | Kd (Adenosine receptor A1 [11]) | Bmax [12] | Activity [13] | Ki (Adenosine receptor A1 [14]) | Activity [15] | SMILES
1 | 9% | 3% | 25% | 69% | 0% | 0% | 0% | 1.1 nM | 1450 fmol | 2.8 | 1.7 nM | 3320 fmol | 1 |  |  | Nc1scc(CN2CCN(c3ncccn3)CC2)c1C(=O)c1ccc(Cl)cc1
2 | 10% | 53% | 84% | 87% | 0% | 0% | 15% | 1 nM | 3990 fmol | 7.7 | 1.9 nM | 3680 fmol | 1.1 |  |  | Nc1scc(CN2CCN(c3ccc(C(F)(F)F)cc3)CC2)c1C(=O)c1ccc(Cl)cc1
3 | 9% | 5% | 46% | 69% | 0% | 4% | 0% | 1.2 nM | 1810 fmol | 3.5 | 1.7 nM | 3090 fmol | 0.9 |  |  | Nc1scc(CN2CCN(c3ccccn3)CC2)c1C(=O)c1ccc(Cl)cc1
4 | 8% | 3% | 31% | 57% | 0% | 0% | 21% |  | 673 fmol | 1.3 |  | 3340 fmol |  | 11000 nM | 42% | Cc1sc(N)c(C(=O)c2cccc(C(F)(F)F)c2)c1C
5 | 5% | 3% | 13% | 52% | 0% | 0% | 5% | 1.1 nM | 622 fmol | 1.2 | 1.9 nM | 3200 fmol | 0.9 |  |  | Nc1scc(CN2CCN(C3CCCCC3)CC2)c1C(=O)c1ccc(Cl)cc1
6 | 15% | 13% | 23% | 34% | 0% | 0% | 0% | 1.1 nM | 725 fmol | 1.4 | 1.9 nM | 3190 fmol | 0.9 |  |  | Nc1scc(CN2CCN(c3ccc4c(c3)OCO4)CC2)c1C(=O)c1ccc(Cl)cc1
7 | 4% | 26% | 62% | 78% | 0% | 0% | 0% | 1 nM | 3370 fmol | 6.5 | 1.9 nM | 3520 fmol | 1 |  |  | Nc1scc(CN2CCN(c3ccccc3)CC2)c1C(=O)c1ccc(Cl)cc1
8 | 10% | 48% | 65% | 78% | 0% | 3% | 6% | 1.1 nM | 3630 fmol | 7 | 1.8 nM | 3650 fmol | 1.1 |  |  | Nc1scc(CN2CCN(c3ccc(Cl)cc3)CC2)c1C(=O)c1ccc(Cl)cc1
9 | 12% | 8% | 54% | 72% | 0% | 0% | 20% | 1.1 nM | 2490 fmol | 4.8 | 1.8 nM | 3260 fmol | 1 |  |  | N#Cc1ccc(N2CCN(Cc3csc(N)c3C(=O)c3ccc(Cl)cc3)CC2)cc1
10 | 3% | 19% | 63% | 77% | 0% | 0% | 17% | 1 nM | 3470 fmol | 6.7 | 1.8 nM | 3560 fmol | 1.1 |  |  | Nc1scc(CN2CCN(c3ccc(F)cc3)CC2)c1C(=O)c1ccc(Cl)cc1
11 | 10% | 3% | 22% | 66% | 0% | 0% | 0% | 1 nM | 2020 fmol | 3.9 | 1.7 nM | 3060 fmol | 0.9 |  |  | Cc1ccc(N2CCN(Cc3csc(N)c3C(=O)c3ccc(Cl)cc3)CC2)cc1
12 | 3% | 4% | 30% | 78% | 0% | 0% | 0% | 1.1 nM | 3160 fmol | 6.1 | 1.7 nM | 3420 fmol | 1 |  |  | Nc1scc(CN2CCN(Cc3ccccc3)CC2)c1C(=O)c1ccc(Cl)cc1

Row | SMILES | Activity [1] | Activity [2] | Activity [3] | Activity [4] | Activity [5] | Activity [6] | Activity [7] | Kd (Adenosine receptor A1 [8]) | Bmax [9] | Activity [10] | Kd (Adenosine receptor A1 [11]) | Bmax [12] | Activity [13] | Ki (Adenosine receptor A1 [14]) | Activity [15]
13 | CN1CCN(Cc2csc(N)c2C(=O)c2ccc(Cl)cc2)CC1 | 3% | 3% | 1% | 16% | 3% | 0% | 0% | 1.2 nM | 570 fmol | 1.1 | 1.7 nM | 2990 fmol | 0.9 |  | 
